In PubChem BioAssay (NCI):
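How tested: cells in 96-well plates exposed to compound for 48 hours at five concentrations. GI50 = concentration required for 50% inhibition of growth. Definition used: TGI = concentration required for complete inhibition of growth.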

How the values were obtained:
Assay in all cases: inhibition of tumour cell growth, NCI panel, 48 h
[1] = system: ACHN renal
[2] = system: BT-549 breast
[3] = system: IGROV1 ovarian
[4] = system: MCF7 breast
[5] = system: NCI-H23 lung
[6] = system: NCI-H460 lung
[7] = system: OVCAR-4 ovarian
[8] = system: OVCAR-8 ovarian
[9] = system: PC-3 prostate
[10] = system: SNB-75 CNS

| Structure (SMILES) | GI50 [1] | TGI [1] | GI50 [2] | TGI [2] | GI50 [3] | TGI [3] | GI50 [4] | TGI [4] | GI50 [5] | TGI [5] | GI50 [6] | TGI [6] | GI50 [7] | TGI [7] | GI50 [8] | TGI [8] | GI50 [9] | TGI [9] | GI50 [10] | TGI [10] |
| --- | --- | --- | --- | --- | --- | --- | --- | --- | --- | --- | --- | --- | --- | --- | --- | --- | --- | --- | --- | --- |
| O=C(Nc1n[nH]c2cc(-c3cc(F)ccc3F)ccc12)C1CC1 | > 25 µM | > 25 µM | > 21.7 µM | > 25 µM | > 25 µM | > 25 µM | 7.43 µM | > 19.8 µM | 14.2 µM | > 25 µM | 8.81 µM | > 25 µM | 13.2 µM | > 25 µM | > 22 µM | > 25 µM | 17.6 µM | > 25 µM | > 15.8 µM | > 25 µM |
| O=c1[nH]c(C2CCCN2)nc2c1oc1ccc(Cl)cc12 (centres undefined) | > 100 µM | > 100 µM | 31.5 µM | > 100 µM | > 100 µM | > 100 µM | 80.4 µM | > 100 µM | > 100 µM | > 100 µM | > 100 µM | > 100 µM | > 39.1 µM | > 100 µM | > 100 µM | > 100 µM | > 100 µM | > 100 µM | 17.9 µM | > 100 µM |
| COc1cc(C2CC(c3ccc(Nc4nc(NCCO)nc(NCCO)n4)cc3)=NN2c2cc(Cl)cc(Cl)c2)cc(OC)c1OC (centres undefined) | 2.58 µM | 13.1 µM | 1.67 µM | 4.54 µM | 2.02 µM | 4.8 µM | 1.26 µM | 2.94 µM | 2.02 µM | 4.97 µM | 1.77 µM | 3.8 µM | 1.63 µM | 3.66 µM | 2.01 µM | 5.86 µM | 1.04 µM | 3.61 µM | 1.05 µM | 3.05 µM |
| COC1=CC(c2ccc[nH]2)=N/C1=C\c1[nH]c(C)c(C(=O)CCCCCCCCC(=O)O[C@H]2CC[C@H]3C4CCc5cc(O)ccc5C4CC[C@]23C)c1C (some centres undefined) | 1.16 µM | > 50 µM | 0.618 µM | > 45.1 µM | 1.06 µM | > 50 µM | 0.37 µM | > 50 µM | 1.85 µM | > 50 µM | 0.536 µM | > 50 µM | 0.343 µM | > 50 µM | 0.378 µM | > 50 µM | 0.327 µM | > 50 µM | 0.29 µM | 2.79 µM |
| O=c1c(Cc2ccc3c(c2)OCO3)nnc2sc(-c3cc(F)c(Cl)cc3Cl)nn12 | 53.8 µM | > 100 µM | 27.4 µM | 56 µM | 32.3 µM | > 100 µM | 38.9 µM | > 100 µM | 82.5 µM | > 100 µM | 50.8 µM | > 100 µM | 59.2 µM | > 100 µM | 36.9 µM | > 100 µM | 35.4 µM | > 100 µM | 28.5 µM | > 100 µM |
| Clc1ccccc1C(Nc1cnccn1)Nc1cnccn1 | – | > 100 µM | – | > 100 µM | – | > 100 µM | – | > 100 µM | – | > 100 µM | – | > 100 µM | – | > 100 µM | – | > 100 µM | – | > 100 µM | – | > 100 µM |
| O=C1/C(=C/c2ccccc2)Oc2cc(O)ccc21 | – | > 100 µM | – | > 100 µM | – | > 100 µM | – | > 100 µM | – | > 100 µM | – | > 100 µM | – | > 100 µM | – | > 100 µM | – | > 100 µM | – | > 100 µM |
| O=C1C(=O)c2c(nc3ccc(C(F)(F)F)cn23)-c2ccccc21 | 0.185 µM | 0.381 µM | 0.186 µM | 0.442 µM | 0.191 µM | 0.47 µM | 0.168 µM | 0.4 µM | 0.175 µM | 0.477 µM | 0.466 µM | 1.08 µM | 0.137 µM | 0.271 µM | 0.253 µM | 0.651 µM | 0.21 µM | 0.761 µM | 0.202 µM | 0.465 µM |
| Cn1c(I)c(C#C[Si](C)(C)C)c(=O)n(C(=O)c2ccccc2)c1=O | 2.9 µM | 7.83 µM | 12.2 µM | 25.6 µM | 1.74 µM | 3.45 µM | 1.92 µM | 5.65 µM | 8.28 µM | 27.8 µM | 8.34 µM | 26.2 µM | 4.59 µM | 15.1 µM | 12.4 µM | 26.1 µM | 3.52 µM | 13.5 µM | 4.2 µM | 20.5 µM |
| CN1CCN(C2=NC(=O)/C(=C\c3ccc(N(C)C)cc3)S2)CC1 | > 100 µM | > 100 µM | > 100 µM | > 100 µM | 72.5 µM | > 100 µM | > 100 µM | > 100 µM | > 100 µM | > 100 µM | > 100 µM | > 100 µM | > 100 µM | > 100 µM | > 100 µM | > 100 µM | > 100 µM | > 100 µM | 48.2 µM | > 100 µM |
| CCCCNC(c1ccc(Cl)cc1)C(O)c1ccc(Cl)cc1 (centres undefined) | 2.46 µM | 7.36 µM | 5.63 µM | 21.4 µM | 2.41 µM | 12.4 µM | 1.95 µM | 5.03 µM | 2.25 µM | 7.59 µM | 1.76 µM | 4.41 µM | 2.87 µM | 13.5 µM | 2.51 µM | 6.02 µM | 1.92 µM | 7.47 µM | 1.93 µM | 11.4 µM |
| Cc1ccc(/C(=N/Nc2ccc([N+](=O)[O-])cc2)Sc2cc(Cl)c(C)cc2S(N)(=O)=O)cc1 | 2.37 µM | 6.51 µM | 10.4 µM | 26 µM | 2.44 µM | 14.6 µM | 2.6 µM | > 21.5 µM | 1.64 µM | 3.59 µM | 2.55 µM | 9.07 µM | 1.28 µM | 3.75 µM | 7.38 µM | > 100 µM | 1.79 µM | 4.47 µM | 2.06 µM | 3.94 µM |
| O=c1c(-c2ccc3c(c2)OCO3)coc2c3c(ccc12)OCO3 | – | 38.8 µM | – | 32.6 µM | – | 59.7 µM | – | 33.7 µM | – | 40 µM | – | 32.1 µM | – | 70.6 µM | – | – | – | > 100 µM | – | 49.7 µM |
